In patent publication US10406207B2, “Peptide conjugates of GLP-1 receptor agonists and gastrin and their use” (priority 2010, dated 2019) one finds EC50 data, which are given here for seven compounds.

One experiment addresses T1, human CCK-B R (Homo sapiens, UniProt P32239).
T1 construct: expressed in transfected cells
T1 sequence (P32239 1-447): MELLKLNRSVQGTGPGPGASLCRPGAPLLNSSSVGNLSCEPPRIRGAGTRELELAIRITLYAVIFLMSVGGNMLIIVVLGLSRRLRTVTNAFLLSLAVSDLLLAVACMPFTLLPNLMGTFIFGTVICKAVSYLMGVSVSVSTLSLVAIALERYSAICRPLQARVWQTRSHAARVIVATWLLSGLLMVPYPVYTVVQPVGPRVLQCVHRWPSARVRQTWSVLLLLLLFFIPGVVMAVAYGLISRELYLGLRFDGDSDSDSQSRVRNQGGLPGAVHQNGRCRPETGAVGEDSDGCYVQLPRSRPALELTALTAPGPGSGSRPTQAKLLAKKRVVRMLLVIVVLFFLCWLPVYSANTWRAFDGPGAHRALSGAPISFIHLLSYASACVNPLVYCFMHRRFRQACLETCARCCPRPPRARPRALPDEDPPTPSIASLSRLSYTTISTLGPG
Kind of experiment: Human CCK-B receptor efficacy assay (AlphaScreen SureFire p-ERK). It is filed as cell-based. Conditions: read-out: hCCK-B R EC50. Background: Alpha assays give light when donor and acceptor beads are brought close together.

The next experiment concerns the target T2, human GLP-1 R (Homo sapiens, UniProt P43220).
T2 construct: expressed in transfected cells
Nature of the experiment: Human GLP-1 receptor efficacy assay (cAMP induction, FlashPlate). It is filed as cell-based. The following applies: read-out: hGLP-1 R EC50. The method, then: On the day of analysis, growth medium was removed and the cells were washed once with 200 μl Tyrode buffer [Tyrode's Salts (9.6 g/l), 10 mM HEPES, pH 7.4]. […] The reaction was stopped by addition of 25 μl 0.5 M HCl and incubated on ice for 60 min.

Structures are written as SMILES. Read-outs that look alike come from different tables or passages of the source. Numbered stars: 1 amine (or outer) side, 2 acyl side, 3 side chain; on linkers, the order of the positions; unused ones are H or OH. Square brackets hold non-standard residues; d marks the D form. Side chains are listed from the residue outwards. Peptide text beside a SMILES is read from it. * marks the point of attachment. γGlu = O=C(O)[C@H](CCC(=O)[*:2])N[*:1]; Palmitoyl = CCCCCCCCCCCCCCCC(=O)*; Orn = NCCC[C@H](N)C(=O)O; AEEA = NCCOCCOCC(=O)O

T2 sequence (P43220 24-463): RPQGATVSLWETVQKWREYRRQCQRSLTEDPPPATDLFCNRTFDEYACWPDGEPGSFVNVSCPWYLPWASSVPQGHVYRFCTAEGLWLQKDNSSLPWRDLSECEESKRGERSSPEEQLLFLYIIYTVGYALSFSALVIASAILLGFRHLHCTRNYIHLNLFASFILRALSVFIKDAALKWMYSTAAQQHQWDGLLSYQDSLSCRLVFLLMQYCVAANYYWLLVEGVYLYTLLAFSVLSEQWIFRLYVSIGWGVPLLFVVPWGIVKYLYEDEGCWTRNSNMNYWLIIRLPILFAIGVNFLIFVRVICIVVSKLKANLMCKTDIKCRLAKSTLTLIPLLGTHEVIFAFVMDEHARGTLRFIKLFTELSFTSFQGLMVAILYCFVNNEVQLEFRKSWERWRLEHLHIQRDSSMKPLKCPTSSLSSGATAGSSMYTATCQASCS

One may read the EC50 as the concentration needed to bring the measured effect to its halfway point. Turning to `CC[C@H](C)[C@H](NC(=O)[C@H](Cc1ccccc1)NC(=O)[C@H](CC(C)C)NC(=O)[C@H](CCCNC(=N)N)NC(=O)[C@@H](NC(=O)[C@H](C)NC(=O)[C@H](CCC(=O)O)NC(=O)[C@H](CCC(=O)O)NC(=O)[C@H](CCC(=O)O)NC(=O)[C@H](CC(C)C)NC(=O)[C@H](Cc1ccc(O)cc1)NC(=O)[C@H](CCCCN)NC(=O)[C@H](CO)NC(=O)[C@H](CC(C)C)NC(=O)[C@H](CCC(=O)O)NC(=O)[C@H](CO)NC(=O)[C@@H](NC(=O)[C@H](Cc1ccccc1)NC(=O)[C@@H](NC(=O)CNC(=O)[C@H](CCC(=O)O)NC(=O)CNC(=O)[C@@H](N)Cc1c[nH]cn1)[C@@H](C)O)[C@@H](C)O)C(C)C)C(=O)N[C@@H](CCC(=O)O)C(=O)N[C@@H](Cc1ccccc1)C(=O)N[C@@H](CC(C)C)C(=O)N[C@@H](CCCCN)C(=O)NCCOCCOCC(=O)N[C@@H](CCCN)C(=O)N[C@@H](Cc1c[nH]c2ccccc12)C(=O)N[C@@H](CC(C)C)C(=O)N[C@@H](CC(=O)O)C(=O)N[C@@H](Cc1ccccc1)C(N)=O` [Compound 99, [Glu9,Leu14,Phe25,Tyr13]Exendin-4(1-27)-Peg3-Orn-[Leu2]Gastrin4] (H-HGEGTFTSELSKYLEEEAVRLFIEFLK[AEEA][Orn]WLDF-NH2), the EC50 at human CCK-B R (Table 2) came out at 51 nM; at human GLP-1 R (Table 2), 0.041 nM.

`CC[C@H](C)[C@H](NC(=O)[C@H](Cc1ccccc1)NC(=O)[C@H](CC(C)C)NC(=O)[C@H](CCCNC(=N)N)NC(=O)[C@@H](NC(=O)[C@H](C)NC(=O)[C@H](CCC(=O)O)NC(=O)[C@H](CCC(=O)O)NC(=O)[C@H](CCC(=O)O)NC(=O)[C@H](CC(C)C)NC(=O)[C@H](Cc1ccc(O)cc1)NC(=O)[C@H](CCCCN)NC(=O)[C@H](CO)NC(=O)[C@H](CC(C)C)NC(=O)[C@H](CCC(=O)O)NC(=O)[C@H](CO)NC(=O)[C@@H](NC(=O)[C@H](Cc1ccccc1)NC(=O)[C@@H](NC(=O)CNC(=O)[C@H](CCC(=O)O)NC(=O)CNC(=O)[C@@H](N)Cc1c[nH]cn1)[C@@H](C)O)[C@@H](C)O)C(C)C)C(=O)N[C@@H](CCC(=O)O)C(=O)N[C@@H](Cc1ccccc1)C(=O)N[C@@H](CC(C)C)C(=O)N[C@@H](CCCCN)C(=O)N[C@@H](CCCN)C(=O)N[C@@H](CCCN)C(=O)N[C@@H](Cc1c[nH]c2ccccc12)C(=O)N[C@@H](CC(C)C)C(=O)N[C@@H](CC(=O)O)C(=O)N[C@@H](Cc1ccccc1)C(N)=O` [Compound 100, [Glu9,Leu14,Phe25,Tyr13]Exendin-4(1-27)-Orn-Orn-[Leu2]Gastrin4] (H-HGEGTFTSELSKYLEEEAVRLFIEFLK[Orn][Orn]WLDF-NH2): the EC50 at human CCK-B R (Table 2) is 860 nM; at human GLP-1 R (Table 2), 0.11 nM.

With `CC[C@H](C)[C@H](NC(=O)[C@H](Cc1ccccc1)NC(=O)[C@H](CC(C)C)NC(=O)[C@H](CCCNC(=N)N)NC(=O)[C@@H](NC(=O)[C@H](C)NC(=O)[C@H](CCC(=O)O)NC(=O)[C@H](CCC(=O)O)NC(=O)[C@H](CCC(=O)O)NC(=O)[C@H](CC(C)C)NC(=O)[C@H](Cc1ccc(O)cc1)NC(=O)[C@H](CCCCN)NC(=O)[C@H](CO)NC(=O)[C@H](CC(C)C)NC(=O)[C@H](CCC(=O)O)NC(=O)[C@H](CO)NC(=O)[C@@H](NC(=O)[C@H](Cc1ccccc1)NC(=O)[C@@H](NC(=O)CNC(=O)[C@H](CCC(=O)O)NC(=O)CNC(=O)[C@@H](N)Cc1c[nH]cn1)[C@@H](C)O)[C@@H](C)O)C(C)C)C(=O)N[C@@H](CCC(=O)O)C(=O)N[C@@H](Cc1ccccc1)C(=O)N[C@@H](CC(C)C)C(=O)N[C@@H](CCCCN)C(=O)NCCOCCOCC(=O)N[C@@H](Cc1ccc(O)cc1)C(=O)NCC(=O)N[C@@H](Cc1c[nH]c2ccccc12)C(=O)N[C@@H](CC(C)C)C(=O)N[C@@H](CC(=O)O)C(=O)N[C@@H](Cc1ccccc1)C(N)=O` [Compound 102, [Glu9,Leu14,Phe25,Tyr13]Exendin-4(1-27)-Peg3-[Leu4]Gastrin6], the results for the EC50 at human CCK-B R (Table 2) and at human GLP-1 R (Table 2) were 54 nM and 0.091 nM, respectively.

Consider `CC[C@H](C)[C@H](NC(=O)[C@H](Cc1ccccc1)NC(=O)[C@H](CC(C)C)NC(=O)[C@H](CCCNC(=N)N)NC(=O)[C@@H](NC(=O)[C@H](C)NC(=O)[C@H](CCC(=O)O)NC(=O)[C@H](CCC(=O)O)NC(=O)[C@H](CCC(=O)O)NC(=O)[C@H](CC(C)C)NC(=O)[C@H](Cc1ccc(O)cc1)NC(=O)[C@H](CCCCN)NC(=O)[C@H](CO)NC(=O)[C@H](CC(C)C)NC(=O)[C@H](CCC(=O)O)NC(=O)[C@H](CO)NC(=O)[C@@H](NC(=O)[C@H](Cc1ccccc1)NC(=O)[C@@H](NC(=O)CNC(=O)[C@H](CCC(=O)O)NC(=O)CNC(=O)[C@@H](N)Cc1c[nH]cn1)[C@@H](C)O)[C@@H](C)O)C(C)C)C(=O)N[C@@H](CCC(=O)O)C(=O)N[C@@H](Cc1ccccc1)C(=O)N[C@@H](CC(C)C)C(=O)N[C@@H](CCCCN)C(=O)N[C@@H](CCCN)C(=O)NCCOCCOCC(=O)N[C@@H](Cc1ccc(O)cc1)C(=O)NCC(=O)N[C@@H](Cc1c[nH]c2ccccc12)C(=O)N[C@@H](CC(C)C)C(=O)N[C@@H](CC(=O)O)C(=O)N[C@@H](Cc1ccccc1)C(N)=O` [Compound 103, [Glu9,Leu14,Phe25,Tyr13]Exendin-4(1-27)-Orn-Peg3-[Leu4]Gastrin6] (H-HGEGTFTSELSKYLEEEAVRLFIEFLK[Orn][AEEA]YGWLDF-NH2), for which the EC50 at human CCK-B R (Table 2) was 100 nM; on human GLP-1 R (Table 2), 0.12 nM.

Take `CC[C@H](C)[C@H](NC(=O)[C@H](Cc1ccccc1)NC(=O)[C@H](CC(C)C)NC(=O)[C@H](CCCNC(=N)N)NC(=O)[C@@H](NC(=O)[C@H](C)NC(=O)[C@H](CCC(=O)O)NC(=O)[C@H](CCC(=O)O)NC(=O)[C@H](CCC(=O)O)NC(=O)[C@H](CC(C)C)NC(=O)[C@H](Cc1ccc(O)cc1)NC(=O)[C@H](CCCCN)NC(=O)[C@H](CO)NC(=O)[C@H](CC(C)C)NC(=O)[C@H](CCC(=O)O)NC(=O)[C@H](CO)NC(=O)[C@@H](NC(=O)[C@H](Cc1ccccc1)NC(=O)[C@@H](NC(=O)CNC(=O)[C@H](CCC(=O)O)NC(=O)CNC(=O)[C@@H](N)Cc1c[nH]cn1)[C@@H](C)O)[C@@H](C)O)C(C)C)C(=O)N[C@@H](CCC(=O)O)C(=O)N[C@@H](Cc1ccccc1)C(=O)N[C@@H](CC(C)C)C(=O)N[C@@H](CCCCN)C(=O)NCCOCCOCC(=O)N[C@@H](CCCN)C(=O)N[C@@H](Cc1ccc(O)cc1)C(=O)NCC(=O)N[C@@H](Cc1c[nH]c2ccccc12)C(=O)N[C@@H](CC(C)C)C(=O)N[C@@H](CC(=O)O)C(=O)N[C@@H](Cc1ccccc1)C(N)=O` [Compound 104, [Glu9,Leu14,Phe25,Tyr13]Exendin-4(1-27)-Peg3-Orn-[Leu4]Gastrin6] (H-HGEGTFTSELSKYLEEEAVRLFIEFLK[AEEA][Orn]YGWLDF-NH2): the EC50 on human CCK-B R (Table 2) is 8.8 nM; on human GLP-1 R (Table 2) it was 0.087 nM.

Consider `CC[C@H](C)[C@H](NC(=O)[C@H](Cc1ccccc1)NC(=O)[C@H](CC(C)C)NC(=O)[C@H](CCCNC(=N)N)NC(=O)[C@@H](NC(=O)[C@H](C)NC(=O)[C@H](CCC(=O)O)NC(=O)[C@H](CCC(=O)O)NC(=O)[C@H](CCC(=O)O)NC(=O)[C@H](CC(C)C)NC(=O)[C@H](Cc1ccc(O)cc1)NC(=O)[C@H](CCCCN)NC(=O)[C@H](CO)NC(=O)[C@H](CC(C)C)NC(=O)[C@H](CCC(=O)O)NC(=O)[C@H](CO)NC(=O)[C@@H](NC(=O)[C@H](Cc1ccccc1)NC(=O)[C@@H](NC(=O)CNC(=O)[C@H](CCC(=O)O)NC(=O)CNC(=O)[C@@H](N)Cc1c[nH]cn1)[C@@H](C)O)[C@@H](C)O)C(C)C)C(=O)N[C@@H](CCC(=O)O)C(=O)N[C@@H](Cc1ccccc1)C(=O)N[C@@H](CC(C)C)C(=O)N[C@@H](CCCCN)C(=O)N[C@@H](CCCN)C(=O)N[C@@H](CCCN)C(=O)N[C@@H](Cc1ccc(O)cc1)C(=O)NCC(=O)N[C@@H](Cc1c[nH]c2ccccc12)C(=O)N[C@@H](CC(C)C)C(=O)N[C@@H](CC(=O)O)C(=O)N[C@@H](Cc1ccccc1)C(N)=O` [Compound 105, [Glu9,Leu14,Phe25,Tyr13]Exendin-4(1-27)-Orn-Orn-[Leu4]Gastrin6] (H-HGEGTFTSELSKYLEEEAVRLFIEFLK[Orn][Orn]YGWLDF-NH2), for which the figures for the EC50 at human CCK-B R (Table 2) and on human GLP-1 R (Table 2) were 16 nM and 0.11 nM, respectively.

Take `CCCCCCCCCCCCCCCC(=O)N[C@@H](CCC(=O)NCCCC[C@H](NC(=O)CNC(=O)[C@H](CCCNC(=N)N)NC(=O)[C@@H](NC(=O)[C@H](CC(C)C)NC(=O)[C@H](Cc1c[nH]c2ccccc12)NC(=O)[C@H](C)NC(=O)[C@@H](NC(=O)[C@H](Cc1ccccc1)NC(=O)[C@H](CCC(=O)O)NC(=O)[C@H](CCCNC(=N)N)NC(=O)[C@H](C)NC(=O)[C@H](C)NC(=O)[C@H](CCC(N)=O)NC(=O)CNC(=O)[C@H](CCC(=O)O)NC(=O)[C@H](CC(C)C)NC(=O)[C@H](Cc1ccc(O)cc1)NC(=O)[C@H](CO)NC(=O)[C@H](CO)NC(=O)[C@@H](NC(=O)[C@H](CC(=O)O)NC(=O)[C@H](CO)NC(=O)[C@@H](NC(=O)[C@H](Cc1ccccc1)NC(=O)[C@@H](NC(=O)CNC(=O)[C@H](CCC(=O)O)NC(=O)[C@H](C)NC(=O)[C@@H](N)Cc1c[nH]cn1)[C@@H](C)O)[C@@H](C)O)C(C)C)[C@@H](C)CC)C(C)C)C(=O)NCC(=O)NCCOCCOCC(=O)NCCOCCOCC(=O)N[C@@H](Cc1ccc(O)cc1)C(=O)NCC(=O)N[C@@H](Cc1c[nH]c2ccccc12)C(=O)N[C@@H](CC(C)C)C(=O)N[C@@H](CC(=O)O)C(=O)N[C@@H](Cc1ccccc1)C(N)=O)C(=O)O` [Compound 108, [Arg26,34,Lys(Hexadecanoyl-isoGlu)36]GLP-1(7-37)-Peg3-Peg3-[Leu4]Gastrin6] (H-HAEGTFTSDVSSYLEGQAAREFIAWLVRGK([γGlu-Palmitoyl])G[AEEA][AEEA]YGWLDF-NH2): the results for the EC50 at human CCK-B R (Table 3) and on human GLP-1 R (Table 3) were 78 nM and 0.11 nM, respectively.
